Experimental data from US20150368681A1, “Dehydroascorbic Acid Process” (priority 2014, published 2015).

Test: Storage stability of DHAA in oxidized zucchini puree product, DHAA concentration by TCEP differential absorbance method
Assay type: physicochemical
Experimental: Four zucchini fruits about 6-8 inches long were purchased at a local grocery store. The shelf labeling indicated the fruits were a product of Mexico, as might be expected in Utah during the month of November when this experiment was conducted. Thus the fruit was not locally-grown and probably older (stored longer since picked) than known fresh-picked fruit. It is known that the AAO activity of zucchini fruit decreases during storage after being picked. The epicarp and outer portions of the mesocarp were peeled from the fruits, to the extent that approximately one-half of the weight of each fruit was included in the peelings. 300 grams of peelings were added to a blender with 100 grams purified water and pureed. 20 grams of the puree was removed and reserved for a “blank”. To the remaining puree (380 grams) was added 1.4 grams AA (as pure crystals approximately US mesh size 20-40) and the puree was mixed in the blender about 1 minute. The pH of the puree was measured and found to be 5.2, and a redox test indicated AA reducing activity in the puree. The puree was allowed to stand with periodic brief mixing for 35 minutes. […] A 20 gram portion was removed for a “test.” The blank and test solutions were centrifuged to remove the pulp so that pulp-free solutions could be spectrophotometrically analyzed. 25 uL of each of these solutions were diluted in 10 mL of 0.15 M phosphoric acid diluent, and the absorbance of each was determined using a UV spectrometer at 262 nm wavelength blanked against diluent. 2 mL of each dilution were combined with 2 mL of a TCEP reagent, incubated one hour, and then the absorbance at 262 nm of these solutions were determined as above (TCEP reagent reduces DHAA in the solution to AA; absorbance measurements at wavelengths where AA strongly absorbs, before and after treatment with TCEP, is a method known to practitioners in the art to quantify DHAA concentration by the differential absorption principle). The following absorption values were obtained (TCEP values are corrected for the X2 dilution):
One whole zucchini fruit weighing 235 grams was pureed in 120 mL water in a blender. The pH of the initial zucchini puree was 6.5. At time 0 minutes, 1.0 gram crystalline AA was added. After mixing 30 seconds, the pH was 5.0. At the times indicated in the table below, pH was recorded, iodine indicator redox result was recorded, and/or additional AA in the amounts indicated were added after testing the pH and redox status. The zucchini puree was continuously mixed in the blender during the entire time, and a cap in the top of the blender was left open to allow fresh air to be drawn into the vortex of the puree in the blender.
The product was split into three equal parts. Part 1 was kept in a closed container at room temperature. Part 2 was kept in a closed container at standard refrigerator temperature of 4 degrees C. Part 3 was kept in a closed container at common freezer temperature of minus 20 degrees C. Part 1 was tested immediately for DHAA concentration by the TCEP method previously discussed, and then after overnight storage (approx. 12 hours); Part 2 was tested after overnight storage (approx. 12 hours), and then after 13 days; Part 3 was tested after 13 days. Recovery column is the actual concentration divided by the maximum expected DHAA concentration of 2.4%, expressed as percent.

- DHAA Concentration (Example 3 product, Part 1, tested immediately, storage 0 hours): 2.27%
- DHAA Concentration (Part 1, closed container, room temperature, 12 hours): 1.68%
- DHAA Concentration (Part 2, refrigerator 4 degrees C, 12 hours): 2.14%
- DHAA Concentration (Part 2, refrigerator 4 degrees C, 312 hours (13 d)): 1.27%
- DHAA Concentration (Part 3, freezer minus 20 degrees C, 312 hours (13 d)): 2.10%
- Loss of DHAA on frozen storage (product stored frozen for at least 13 days): minimal loss
SMILES: O=C1O[C@H]([C@@H](O)CO)C(=O)C1=O [DHAA, dehydroascorbic acid]
